Among the data in PMC11378298 (ACS Chemical Neuroscience, 2024) are IC50 and inhibition values, retold here.

Molecules are shown by their SMILES. Structures can show the parent of a compound that is named as a salt.

The term IC50 denotes the concentration at which inhibition is half-maximal. A low value points to greater potency in that assay.

In one experiment the target is GSK-3β (Homo sapiens, UniProt P49841). Put plainly: biochemical.
Sequence of GSK-3β (P49841 whole entry): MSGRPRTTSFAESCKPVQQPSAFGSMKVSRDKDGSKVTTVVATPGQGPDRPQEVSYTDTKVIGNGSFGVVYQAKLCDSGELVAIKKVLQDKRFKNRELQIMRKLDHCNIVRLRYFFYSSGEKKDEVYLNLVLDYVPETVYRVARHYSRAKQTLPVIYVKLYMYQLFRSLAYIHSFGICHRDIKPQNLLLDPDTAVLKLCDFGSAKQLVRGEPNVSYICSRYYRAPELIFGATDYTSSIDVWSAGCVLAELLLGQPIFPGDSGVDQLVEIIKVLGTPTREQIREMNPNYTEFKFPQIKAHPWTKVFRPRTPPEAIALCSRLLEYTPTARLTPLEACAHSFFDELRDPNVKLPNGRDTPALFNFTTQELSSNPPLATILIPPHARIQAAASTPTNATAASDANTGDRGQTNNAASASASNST
Settings: not given
How it is done:
We evaluated the pharmacological properties of the compounds in vitro against GSK-3β using the GSK-3β Kinase Enzyme System followed by ADP-Glo bioluminescent assay.[50] The principle of the assay is to determine the amount of ADP formed from ATP in the kinase reaction. […] Additionally, compounds 11 and 36 in complex with GSK-3β were analyzed by the proteins’ melting temperature determination using Thermal Shift Assay (see Figure S1 in the SI).
The inhibitory activities of the tested compounds against the GSK-3β human recombinant kinase were measured using Promega’s GSK-3β Kinase Enzyme System (Promega; Madison, WI, USA), according to the provided manufacturer’s instruction, using the low-volume white polystyrene 384-well plates. The ADP-Glo Assay (Promega; Madison, WI, USA) was used for bioluminescent detection of the kinase activity. Tested compounds were prepared as 1 mM stock solutions in DMSO and diluted with the Kinase Assay Buffer before use (40 mM Tris, pH 7.5, enriched with 50 μM dithiothreitol; DTT) to obtain the desired compounds’ concentrations. The kinase enzyme, GSK-3β-substrate (derived from human muscle glycogen synthase 1), and ATP were also diluted in the assay buffer before use. At first, GSK-3β (10 ng per well) was incubated with the tested sample (10 μM in well) for 5 min. In the case of blank wells, the DMSO solution (1% in well) was used instead of the target samples’ solutions. After the incubation period, ATP (25 μM in well) and GSK-3β-substrate (0.2 μg/μL in well) were added to start the enzymatic reaction. The reaction mixture was kept at room temperature for 1 h, followed by the addition of the ADP-Glo reagent, to terminate the kinase reaction and deplete any remaining ATP. After the following 40 min—a second reagent (Kinase Detection Reagent) was applied to convert the obtained ADP to ATP and to generate light from the newly synthesized ATP using a luciferase/luciferin reaction. The mixture was kept for another 30 min at room temperature, then the luminescence was measured. Based on equation 100 – (S/B) × 100 (where S and B were the respective enzyme activities with and without the tested sample, respectively) the percent of inhibition of GSK-3β for each compound was calculated. […] Calculations were made using nonlinear regression (GraphPad Prism 9; GraphPad Software, San Diego, CA, USA) by plotting the residual enzyme activities against the applied inhibitor concentration. […] Each data point was collected in triplicate.
For the molecule `O=C(Nc1cc(C2=CCN(C[C@@H]3CCCN3)C2)ccn1)C1CC1` [(S)-15, (S)-N-(4-(1-(Pyrrolidin-2-ylmethyl)-2,5-dihydro-1H-pyrrol-3-yl)pyridin-2-yl)cyclopropanecarboxamide Hydrochloride], half-maximal inhibition (IC50) was put at 11300 ± 1120 nM.

Regarding `NCCCC(=O)N1CC=C(c2ccnc(NC(=O)C3CC3)c2)C1` [Compound 13, N-(4-(1-(4-Aminobutanoyl)-2,5-dihydro-1H-pyrrol-3-yl)pyridin-2-yl)cyclopropanecarboxamide Hydrochloride], the IC50 turned out to be 5490 ± 363 nM.

`O=C(Nc1cc(-c2ccc(-c3ncon3)cc2)ccn1)C1CC1` [Compound 32, N-(4-(4-(1,2,4-Oxadiazol-3-yl)phenyl)pyridin-2-yl)cyclopropanecarboxamide] returned an IC50 of 257 ± 5 nM.

`NCCS(=O)(=O)N1CC=C(c2ccnc(NC(=O)C3CC3)c2)C1` [Compound 19, N-(4-(1-((2-Aminoethyl)sulfonyl)-2,5-dihydro-1H-pyrrol-3-yl)pyridin-2-yl)cyclopropanecarboxamide Hydrochloride] registered a half-maximal inhibitory concentration (IC50) of 1370 ± 44 nM.

Molecule `N#Cc1cccc(-c2ccnc(NC(=O)C3CC3)c2)c1` [Compound 23, N-(4-(3-Cyanophenyl)pyridin-2-yl)cyclopropanecarboxamide] showed an IC50 of 952 ± 21 nM.

In the case of `O=C(Nc1cc(C2=CCN(S(=O)(=O)C3CCCC3)C2)ccn1)C1CC1` [Compound 18, N-(4-(1-(Cyclopentylsulfonyl)-2,5-dihydro-1H-pyrrol-3-yl)pyridin-2-yl)cyclopropanecarboxamide], it took 3250 ± 83 nM to reach half-maximal inhibition (IC50).

The molecule `N#Cc1ccc(-c2ccnc(NC(=O)C3CC3)c2)cn1` [Compound 24, N-(6-Cyano-[3,4′-bipyridin]-2′-yl)cyclopropanecarboxamide] displayed a half-inhibitory concentration (IC50) of 212 ± 7 nM.

Molecule `O=C(Nc1cc(C2=CCN(C(=O)[C@@H]3CCCN3)C2)ccn1)C1CC1` [Compound 14, N-(4-(1-Prolyl-2,5-dihydro-1H-pyrrol-3-yl)pyridin-2-yl)cyclopropanecarboxamide] yielded an IC50 of 7720 ± 543 nM.

As to `N#Cc1ccc(-c2ccnc(NC(=O)C3CC3)c2)s1` [Compound 26, N-(4-(5-Cyanothiophen-2-yl)pyridin-2-yl)cyclopropanecarboxamide], the IC50 worked out at 146 ± 5 nM.

Consider `O=C(Nc1cc(-c2cccc(-c3ncon3)c2)ccn1)C1CC1` [Compound 33, N-(4-(3-(1,2,4-Oxadiazol-3-yl)phenyl)pyridin-2-yl)cyclopropanecarboxamide], for which it took 898 ± 32 nM to reach half-maximal inhibition (IC50).

For the molecule `CS(=O)(=O)N1CC=C(c2ccnc(NC(=O)C3CC3)c2)C1` [Compound 16, N-(4-(1-(Methylsulfonyl)-2,5-dihydro-1H-pyrrol-3-yl)pyridin-2-yl)cyclopropanecarboxamide], half-maximal inhibition (IC50) required 6200 ± 163 nM.

For the molecule `NCCCS(=O)(=O)N1CC=C(c2ccnc(NC(=O)C3CC3)c2)C1` [Compound 20, N-(4-(1-((3-Aminopropyl)sulfonyl)-2,5-dihydro-1H-pyrrol-3-yl)pyridin-2-yl)cyclopropanecarboxamide Hydrochloride], the IC50 worked out at 9990 ± 406 nM.

Take `CC(=O)N1CC=C(c2ccnc(NC(=O)C3CC3)c2)C1` [Compound 10, N-(4-(1-Acetyl-2,5-dihydro-1H-pyrrol-3-yl)pyridin-2-yl)cyclopropanecarboxamide]: the midpoint of inhibition, the IC50, lay at 599 ± 11 nM.

As for `N#Cc1ccc(-c2ccnc(NC(=O)C3CC3)c2)cc1` [Compound 22, N-(4-(4-Cyanophenyl)pyridin-2-yl)cyclopropanecarboxamide], the midpoint of inhibition, the IC50, lay at 1130 ± 37 nM.

As to `O=C(Nc1cc(-c2ccnc(-c3ncon3)c2)ccn1)C1CC1` [Compound 35, N-(2′-(1,2,4-Oxadiazol-3-yl)-[4,4′-bipyridin]-2-yl)cyclopropanecarboxamide], half-maximal inhibition (IC50) was put at 809 ± 28 nM.

Turning to `CCCS(=O)(=O)N1CC=C(c2ccnc(NC(=O)C3CC3)c2)C1` [Compound 17, N-(4-(1-(Propylsulfonyl)-2,5-dihydro-1H-pyrrol-3-yl)pyridin-2-yl)cyclopropanecarboxamide], 9270 ± 467 nM corresponded to half-maximal inhibition (IC50).

Take `O=C(Nc1cc(-c2ccc(-c3ccccc3)s2)ccn1)C1CC1` [Compound 37, N-(4-(5-Phenylthiophen-2-yl)pyridin-2-yl)cyclopropanecarboxamide]: the midpoint of inhibition, the IC50, lay at 5220 ± 301 nM.

`NCCC(=O)N1CC=C(c2ccnc(NC(=O)C3CC3)c2)C1` [Compound 12, N-(4-(1-(3-Aminopropanoyl)-2,5-dihydro-1H-pyrrol-3-yl)pyridin-2-yl)cyclopropanecarboxamide Hydrochloride] displayed a concentration for half-maximal inhibition (IC50) of 1360 ± 110 nM.

The same experiment, now with this note: read-out: Percent of enzyme inhibition at 10 μM of inhibitor concentration.
As to `O=C(Nc1cc(C2=CCN(C[C@H]3CCCN3)C2)ccn1)C1CC1` [(R)-15, (R)-N-(4-(1-(Pyrrolidin-2-ylmethyl)-2,5-dihydro-1H-pyrrol-3-yl)pyridin-2-yl)cyclopropanecarboxamide hydrochloride], the inhibition at 10 µM amounted to 17.8 ± 1.7%.

For the molecule `N#Cc1cc(-c2ccnc(NC(=O)C3CC3)c2)ccn1` [Compound 25, N-(2′-Cyano-[4,4′-bipyridin]-2-yl)cyclopropanecarboxamide], the inhibition at 10 µM turned out to be 34.4 ± 2.8%.
